Laboratory results published in patent US8623661B2, “Iron chelating agent, method for producing same, method for determining amount of iron ions and method for trapping iron ions” (National University Corporation Asahikawa Medical College, priority 2008, dated 2014).

How the values were obtained:
[1] = target: T1, transferrin iron complex (holo-Transferrin (hTf), human) (Homo sapiens, UniProt P02787); assay: Evaluation D: capture of iron ions from transferrin iron complex; type: binding
T1 construct: purchased Sigma Corporation T0665-50MG
Description: Evaluation was carried out by the following evaluation method D with respect to properties whether iron ions were captured from the transferrin iron complex (transferrin iron complex in which transferrin is chelated to iron ions) by the iron chelating agent according to Examples 1 to 2.
The iron chelating agent according to Example 1 was dissolved in 1×D-PBS (pH 7.2) to prepare an iron chelating agent solution (“Fe-Ser•Na (5 mM)”) having an iron chelating agent concentration of 5 mM, in the same manner as the preparation method of the iron chelating agent in evaluation A of the iron chelating agent.
Further, as described above, the iron chelating agent according to Example 2 was dissolved in 1×D-PBS (pH 7.2) to prepare an iron chelating agent solution (“Fe-His•Na (5 mM)”) having an iron chelating agent concentration of 5 mM.
Further, 800 mM HEDTA solution as the iron chelating agent according to Comparative Example 3 was prepared as described above. 13.76 g of crystals were taken in a 50 mL conical tube, 25 mL of Milli-Q water was added and dissolution performed, and then adjustment to pH 7.0 was performed using concentrated hydrochloric acid (35 to 37%) and the total amount was adjusted to 50 mL using Milli-Q water (HEDTA solution (800 mM)). HEDTA solution (“HEDTA solution (5 mM)”) having a concentration of HEDTA of 5 mM was prepared using 1×D-PBS (pH 7.2).
Further, 800 mM solution (pH 7.0) was prepared by using NTA2Na and NTA3Na as iron chelating agents according to Comparative Example 1 as described above. 9.4 g of NTA2Na was dissolved in Milli-Q water and the total volume was made up to 50 mL (referred to as “NTA2Na solution (800 mM)” in some cases). Meanwhile, 11.0 g of NTA3Na was dissolved in Milli-Q water and the total volume was made up to 50 mL (“NTA3Na solution (800 mM)”). NTA2Na solution (800 mM) (pH 6.3) and NTA3Na solution (800 mM) (pH 11.3) were mixed to produce 800 mM of NTA solution with pH 7.0. NTA solution (“NTA solution (5 mM)”) having a concentration of NTA of 5 mM was prepared by using 1×D-PBS (pH 7.2).
A commercially available transferrin iron complex (holo-Transferrin (hTf), human, Code T0665-50MG, Lot 095K1633, manufactured by Sigma Corporation) was dissolved in 1×D-PBS (pH 7.2) to prepare a transferrin iron complex solution having a concentration of iron ions (iron ions which are transferrin-bound iron) of 50 μM.
50 μl of 50 μM transferrin iron complex solution was taken in a 1.5 mL sample tube, 50 μl of each of iron chelating agent solutions (Fe-Ser•Na (5 mM), Fe-His•Na (5 mM), NTA solution (5 mM), HEDTA solution (5 mM)) was added thereto and left at room temperature under light shielding for 24 hours. 50 μl of various reaction liquids was taken in a centrifugal ultrafiltration unit (trade name “Amicon Ultra-4 Ultracel-30k” UFC8030, manufactured by Millipore Corporation), and 450 μl of 1×D-PBS (pH 7.2) was added thereto, centrifugation was carried out at 3,500 rpm and 20° C. for 30 minutes, and transferrin and each low molecular chelating agents were separated (first time). After centrifugation, the filtrate was discarded. 450 μl of 1×D-PBS (pH 7.2) was added again to the solution (about 50 μl) containing transferrin concentrated in a unit and centrifugation was carried out with the same conditions (second time). A solution containing transferrin concentrated in a unit was recovered after the second time of centrifugation and the absorbance at the wavelength of 466 nm was measured using a spectrophotometer (trade name “Spectrophotometer DU 640”, manufactured by Beckman Coulter).

[2] = test system: iron citrate complex ammonium salt (FAC); assay: Evaluation A: chelating ability with iron, absorbance after adding chelating agent to iron citrate complex ammonium salt (FAC) solution; type: binding; conditions: for [B] absorbance after addition of iron chelating agent / [B]-[A]: 470 nm; for [B]-[A]: minus blank
Description: Evaluation was carried out by the following evaluation method A as to whether the iron chelating agent according to Example 1 had chelating ability with iron.
335 mg of the iron chelating agent (MW:209.2) according to Example 1 was added to a 50 mL conical tube, 15 mL of Dulbecco's phosphate buffered saline (pH 7.2;1×D-PBS) was added thereto, 70 mg of sodium hydroxide (MW:40.0) crystal was added thereto, followed by vigorously stirring (shaking) for 10 minutes, and centrifugation (1000 rpm, flashing) was carried out before the lid was opened. Then, 16.75 mL of 1×D-PBS (pH 7.2) was added thereto, and an iron chelating agent solution was prepared having a total amount of 31.75 mL.
Further, 1×D-PBS (pH 7.2) was added to FAC solution (20 mM) to prepare an iron citrate complex ammonium salt solution having a concentration of iron ions of 2 mM (“FAC solution (2 mM)”).
Iron citrate complex ammonium salt solution [FAC solution (20 mM), FAC solution (2 mM)]”, and 1×D-PBS (pH 7.2) were mixed at the ratios shown in Tables 1 to 2, the absorbance of the mixture (wavelength 470 nm) was measured by using a spectrophotometer (trade name “NanoDrop ND-1000 Full-spectrum UV/Vis Spectrophotometer”, manufactured by SCRUM Corporation, UV-Vis Module, Measure), and the absorbance of blank ([A] in Tables 1 to 2) was determined. Then, 158 μL of Fe-Ser•Na (50 mM) was added to the mixture, the absorbance (wavelength 470 nm) was measured as described above, and the absorbance after addition of iron chelating agent according to Examples ([B] in Tables 1 to 2) was determined.

[3] = FAC solution (2 mM) 0 μl + 1xD-PBS 160 μl + Fe-Ser•Na (50 mM) 158 μl
[4] = FAC solution (2 mM) 10 μl + 1xD-PBS 150 μl + Fe-Ser•Na (50 mM) 158 μl
[5] = FAC solution (2 mM) 20 μl + 1xD-PBS 140 μl + Fe-Ser•Na (50 mM) 158 μl
[6] = FAC solution (2 mM) 40 μl + 1xD-PBS 120 μl + Fe-Ser•Na (50 mM) 158 μl
[7] = FAC solution (2 mM) 80 μl + 1xD-PBS 80 μl + Fe-Ser•Na (50 mM) 158 μl
[8] = FAC solution (2 mM) 160 μl + 1xD-PBS 0 μl + Fe-Ser•Na (50 mM) 158 μl
[9] = FAC solution (20 mM) 0 μl + 1xD-PBS 160 μl + Fe-Ser•Na (50 mM) 158 μl
[10] = FAC solution (20 mM) 10 μl + 1xD-PBS 150 μl + Fe-Ser•Na (50 mM) 158 μl
[11] = FAC solution (20 mM) 20 μl + 1xD-PBS 140 μl + Fe-Ser•Na (50 mM) 158 μl
[12] = FAC solution (20 mM) 40 μl + 1xD-PBS 120 μl + Fe-Ser•Na (50 mM) 158 μl
[13] = FAC solution (20 mM) 80 μl + 1xD-PBS 80 μl + Fe-Ser•Na (50 mM) 158 μl
[14] = FAC solution (20 mM) 160 μl + 1xD-PBS 0 μl + Fe-Ser•Na (50 mM) 158 μl

T1 sequence (P02787 20-698, one chain of several): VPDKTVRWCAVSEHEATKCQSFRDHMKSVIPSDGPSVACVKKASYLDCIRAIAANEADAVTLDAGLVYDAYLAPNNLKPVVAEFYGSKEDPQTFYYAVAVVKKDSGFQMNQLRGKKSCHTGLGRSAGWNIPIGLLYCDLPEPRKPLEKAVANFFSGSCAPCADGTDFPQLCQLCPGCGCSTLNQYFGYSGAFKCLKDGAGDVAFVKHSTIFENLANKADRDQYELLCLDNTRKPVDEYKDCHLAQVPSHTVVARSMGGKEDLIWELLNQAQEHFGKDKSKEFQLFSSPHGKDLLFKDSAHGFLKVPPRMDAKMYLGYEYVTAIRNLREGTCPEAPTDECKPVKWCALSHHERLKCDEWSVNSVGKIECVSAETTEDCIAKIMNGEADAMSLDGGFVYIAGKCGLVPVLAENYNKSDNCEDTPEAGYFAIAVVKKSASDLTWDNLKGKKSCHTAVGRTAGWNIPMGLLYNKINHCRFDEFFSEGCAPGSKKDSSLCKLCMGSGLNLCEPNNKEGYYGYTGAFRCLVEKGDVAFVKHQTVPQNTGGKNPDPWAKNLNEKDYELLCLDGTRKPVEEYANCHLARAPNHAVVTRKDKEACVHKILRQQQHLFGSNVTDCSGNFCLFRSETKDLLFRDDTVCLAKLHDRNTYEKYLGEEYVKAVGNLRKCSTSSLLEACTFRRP

- change of absorbance (wavelength 466 nm) after addition to the transferrin iron complex solution ([1]; conclusion from Table 5): increased
- hTf residual ratio (%) ([1]; relative to non-treated holo-Transferrin, 24 hours with 5 mM chelator solution): 104.32%
- Absorbance (466 nm) ([1]; transferrin fraction after 24 hours at room temperature with 5 mM chelator solution and 50 μM transferrin iron complex solution, ultrafiltration): 0.0772
Compound: O=C(O)C(CO)NCc1ccccc1O (stereo not drawn) [Example 1, o-[(1-carboxy-2-hydroxyethyl)-amino-methyl]-phenol]
- capture of iron ions from the transferrin iron complex ([1]; conclusion from Table 5): does not remove iron ions of the transferrin iron complex
- [B] absorbance after addition of iron chelating agent [2, 3]: 0.015
- [B]-[A] [2, 3]: 0.012
- [B] absorbance after addition of iron chelating agent [2, 4]: 0.027
- [B]-[A] [2, 4]: 0.023
- [B] absorbance after addition of iron chelating agent [2, 5]: 0.040
- [B]-[A] [2, 5]: 0.035
- [B] absorbance after addition of iron chelating agent [2, 6]: 0.055
- [B]-[A] [2, 6]: 0.046
- [B] absorbance after addition of iron chelating agent [2, 7]: 0.104
- [B]-[A] [2, 7]: 0.096
- [B] absorbance after addition of iron chelating agent [2, 8]: 1.181
- [B]-[A] [2, 8]: 0.169
- [B] absorbance after addition of iron chelating agent [2, 9]: 0.010
- [B]-[A] [2, 9]: 0.010
- [B] absorbance after addition of iron chelating agent [2, 10]: 0.109
- [B]-[A] [2, 10]: 0.104
- [B] absorbance after addition of iron chelating agent [2, 11]: 0.208
- [B]-[A] [2, 11]: 0.199
- [B] absorbance after addition of iron chelating agent [2, 12]: 0.405
- [B]-[A] [2, 12]: 0.390
- [B] absorbance after addition of iron chelating agent [2, 13]: 0.800
- [B]-[A] [2, 13]: 0.771
- [B] absorbance after addition of iron chelating agent [2, 14]: 1.368
- [B]-[A] [2, 14]: 1.311
- capture of iron ions from the iron citrate complex ([2]; conclusion from Tables 1 to 2): iron ions can be captured
- chelating ability with iron ([2]; conclusion from Tables 1 to 2): has chelating ability with iron
